One assay relates to BA/F3 (insSVD) cells. Description: Ba/F3-EGFR-insSVD cell survival assay (Cell Titer-Glo). It counts as cell-based. Particulars: Table 3a, cell survival, Cell Titer-Glo, with 10 ng/ml EGF, without IL-3. On the procedure:
Cellular Data Description (WT, insSVD, insSVD T790M) 293T cells from ATCC were transfected with pBABEpuro expression constructs for WT EGFR or EGFR-insSVD, or EGFR-insSVD T790M, and pCL-Eco packaging vector using Fugene-6 transfection reagent from Promega. Plates were incubated at 37° C. for 48 h. Retrovirus was harvested by filtering the media supernatant through a 0.45 μm filter.
Ba/F3 cells purchased from DSMZ were grown in RPMI+10% FBS+10 ng/ml IL-3 and infected with filtered retroviral supernatant at a 1:2 dilution. Polybrene was added to a concentration of 8 μg/mL, plates were spun for 90 min, and incubated for 16 h at 37° C. 2 μg/mL puromycin was added to the infected cells 24 h after infection and cells were continually grown in the presence of puromycin and 10 ng/ml IL-3. Following stably expressing Ba/F3 cell lines were generated: Ba/F3-EGFR-WT, Ba/F3-EGFR-insSVD, Ba/F3-EGFR-insSVD T790M, (Ba/F3-vector-control).
For cell survival assays, Ba/F3 cells were grown to a density of 1-2 million cells per mL, spun down and resuspended in media without IL-3, and replated at a concentration of 200,000-500,000 cells per mL. The cells ectopically expressing WT EGFR, EGFR-insSVD, or EGFR-insSVD T790M were plated with 10 ng/ml Millipore Culture grade EGF. The cells ectopically expressing pBABEpuro empty vector were plated with 10 ng/mL IL-3.
2 days later, cells were plated in 50 µL in a 384 well plate at a concentration of 4000 cells per well for cells assayed in the absence of IL-3 and 2000 cells per well for cells assayed in the presence of IL-3. 100 nL of compound was added to each well using a 100 nL pin head, and plates were incubated at 37° C. for 48 h.
Cell viability was measured by adding 20 μL of Cell Titer-Glo Luminescent Cell Viability Reagent diluted 1:3 in PBS. Plates were sealed with Perkin Elmer Top-Seal, inverted several times to mix, and immediately centrifuged at 1000 rpm for 2 min. Plates were incubated in low light conditions for 8-10 min and luminescence was measured.
In general terms: ATP-based viability assays read luminescence as a measure of living cells.

Assay [1] has as its target T1, mutEGFR (D770_N771insSVD) (Homo sapiens, UniProt P00533, DUP768-770).
T1 construct: GST-EGFR #3 (SVD between D770 and N771); made in house; host or cells: Sf9 insect cells (baculovirus)
Description: Exon20-Mutant-EGFR (D770_N771insSVD) kinase assay (TR-FRET). The settings on record: mutEGFR (D770_N771insSVD) kinase assay IC50, Table 2a; D770_N771insSVD; 2 mM ATP. The assay is classed as biochemical. On the technique in general: In TR-FRET formats the signal depends on donor and acceptor labels being close together.

The target in assay [2] is T2, mutEGFR (D770_N771insNPG, T790) (Homo sapiens, UniProt P00533, INS770NPG/T790M).
T2 construct: exact insNPG construct not described; in-house EGFR proteins were N-terminal GST fusions from baculovirus/insect cells (borders R669-A1210 given only for WT, insSVD, insASV)
T2 sequence (P00533 with tags, fused parts or gaps INS770NPG/T790M limits assumed): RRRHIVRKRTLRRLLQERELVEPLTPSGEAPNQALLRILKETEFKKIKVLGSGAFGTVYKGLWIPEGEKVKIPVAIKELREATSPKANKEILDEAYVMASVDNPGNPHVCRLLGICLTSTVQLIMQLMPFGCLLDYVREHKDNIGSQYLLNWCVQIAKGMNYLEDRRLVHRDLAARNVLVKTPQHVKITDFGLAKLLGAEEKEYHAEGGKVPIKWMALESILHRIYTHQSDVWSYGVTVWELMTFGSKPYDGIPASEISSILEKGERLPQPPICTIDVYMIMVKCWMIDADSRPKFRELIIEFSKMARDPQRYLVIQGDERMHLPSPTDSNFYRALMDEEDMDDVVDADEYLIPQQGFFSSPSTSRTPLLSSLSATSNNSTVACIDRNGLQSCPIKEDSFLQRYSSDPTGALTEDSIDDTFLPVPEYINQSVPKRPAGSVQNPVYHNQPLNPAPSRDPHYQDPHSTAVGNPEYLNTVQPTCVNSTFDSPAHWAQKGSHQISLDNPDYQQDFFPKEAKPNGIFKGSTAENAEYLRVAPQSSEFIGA
Description: mutEGFR (D770_N771insNPG, T790) kinase assay. The assay is classed as biochemical. Particulars: Table 2a, D770_N771insNPG. An excerpt:
The different EGFR proteins used in the biochemical kinase activity inhibition assays were generated inhouse by expression in insect cells using Baculo Virus system and subsequent purification as described in the following paragraphs.
The cDNAs encoding the various protein sequences from human EGFR human (P00533) were optimized for expression in eukaryotic cells and synthesized by the GeneArt Technology at Life Technologies.

As a reminder, the IC50 is the point on the concentration scale where inhibition reaches its midpoint. Read a high IC50 as a need for much substance.

T1 sequence (P00533 with tags, fused parts or gaps DUP768-770): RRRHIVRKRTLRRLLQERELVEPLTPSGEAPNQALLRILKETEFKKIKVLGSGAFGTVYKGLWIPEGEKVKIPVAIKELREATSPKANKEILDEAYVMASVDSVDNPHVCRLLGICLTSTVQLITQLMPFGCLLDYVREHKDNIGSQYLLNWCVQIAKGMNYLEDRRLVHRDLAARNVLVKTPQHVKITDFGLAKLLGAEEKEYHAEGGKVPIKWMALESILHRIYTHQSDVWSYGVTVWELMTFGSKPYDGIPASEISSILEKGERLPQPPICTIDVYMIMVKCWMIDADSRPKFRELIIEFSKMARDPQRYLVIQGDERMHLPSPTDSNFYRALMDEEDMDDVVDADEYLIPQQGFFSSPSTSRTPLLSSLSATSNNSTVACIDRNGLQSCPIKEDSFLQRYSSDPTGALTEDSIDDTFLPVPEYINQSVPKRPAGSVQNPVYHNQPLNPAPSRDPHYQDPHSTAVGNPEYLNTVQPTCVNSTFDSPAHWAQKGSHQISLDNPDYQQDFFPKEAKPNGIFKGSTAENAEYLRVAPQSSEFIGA

Take `C=CC(=O)N1CCn2nc(-c3ccc4cc[nH]c4c3)c(-c3ccncc3)c2C1C` (racemic) [Example 243, 1-[(RS)-2-(1H-indol-6-yl)-4-methyl-3-(pyridin-4-yl)-6,7-dihydropyrazolo[1,5-a]pyrazin-5(4H)-yl]prop-2-en-1-one]: the IC50 with BA/F3 (insSVD) cells (Mus musculus, BaF3, 48 h) was 97.8 nM; in assay [1] it was 0.395 nM; in assay [2] it was 0.656 nM.
Take `CC1c2c(-c3ccncc3)c(-c3ccc(Cl)cc3F)nn2CCN1C(=O)/C=C/CN(C)C` (racemic) [Example 244, (2E)-1-[(RS)-2-(4-chloro-2-fluorophenyl)-4-methyl-3-(pyridin-4-yl)-6,7-dihydropyrazolo[1,5-a]pyrazin-5(4H)-yl]-4-(dimethylamino)but-2-en-1-one]: the IC50 in the assay with BA/F3 (insSVD) cells (Mus musculus, BaF3, 48 h) worked out at 168 nM; in assay [1], 0.749 nM; in assay [2] it was 1.99 nM.
As to `C=CC(=O)N1Cc2c(-c3ccncc3)c(-c3ccc4sccc4c3)nn2C(C)C1` (racemic) [Example 280, 1-[(7RS)-2-(1-benzothiophen-5-yl)-7-methyl-3-(pyridin-4-yl)-6,7-dihydropyrazolo[1,5-a]pyrazin-5(4H)-yl]prop-2-en-1-one], the IC50 with BA/F3 (insSVD) cells (Mus musculus, BaF3, 48 h) was 6.82 nM; in assay [1], 0.0813 nM; in assay [2], 0.151 nM.
With `C=CC(=O)N1Cc2c(-c3ccncc3)c(-c3ccc(Cl)cc3)nn2C(C)C1` (racemic) [Example 281, 1-[(7RS)-2-(4-chlorophenyl)-7-methyl-3-(pyridin-4-yl)-6,7-dihydropyrazolo[1,5-a]pyrazin-5(4H)-yl]prop-2-en-1-one], the IC50 in the assay on BA/F3 (insSVD) cells (Mus musculus, BaF3, 48 h) is 9.77 nM; in assay [1], 0.17 nM; in assay [2], 0.366 nM.
For `C=CC(=O)N1Cc2c(-c3ccncc3)c(-c3ccc(F)cc3)nn2C(C(=O)NC)C1` (single isomer, unassigned; isomer 1) [Example 205, 5-acryloyl-2-(4-fluorophenyl)-N-methyl-3-(pyridin-4-yl)-4,5,6,7-tetrahydropyrazolo[1,5-a]pyrazine-7-carboxamide (isomer 1)], in that order: 824 nM, 137 nM and 144 nM.
Turning to `C=CC(=O)N1Cc2c(-c3ccncc3)c(-c3ccc(F)cc3)nn2C(C(=O)N(C)C)C1` (single isomer, unassigned; isomer 1) [Example 206, 5-acryloyl-2-(4-fluorophenyl)-N,N-dimethyl-3-(pyridin-4-yl)-4,5,6,7-tetrahydropyrazolo[1,5-a]pyrazine-7-carboxamide (isomer 1)], the IC50 is 600 nM with BA/F3 (insSVD) cells (Mus musculus, BaF3, 48 h); 55.3 nM in assay [1]; 82.9 nM in assay [2].
For the compound `C=CC(=O)N1CCn2nc(-c3ccc(F)cc3)c(-c3ccnc4[nH]ccc34)c2C1C` (single isomer, unassigned; isomer 1) [Example 249, 1-(2-(4-fluorophenyl)-4-methyl-3-(1H-pyrrolo[2,3-b]pyridin-4-yl)-6,7-dihydropyrazolo[1,5-a]pyrazin-5(4H)-yl) prop-2-en-1-one (isomer 1)], the IC50 in the assay with BA/F3 (insSVD) cells (Mus musculus, BaF3, 48 h) amounted to 98.7 nM; in assay [1], 372 nM; in assay [2], 57.5 nM.
`CC1c2c(-c3ccnc4[nH]ccc34)c(-c3ccc(F)cc3)nn2CCN1C(=O)/C=C/CN(C)C` (single isomer, unassigned; isomer 1) [Example 255, 4-(dimethylamino)-1-[2-(4-fluorophenyl)-4-methyl-3-(1H-pyrrolo[2,3-b]pyridin-4-yl)-6,7-dihydropyrazolo[1,5-a]pyrazin-5(4H)-yl]but-2-en-1-one (isomer 1)]: the IC50 in the assay with BA/F3 (insSVD) cells (Mus musculus, BaF3, 48 h) turned out to be 296 nM; in assay [1], 3180 nM; in assay [2], 9610 nM.
As to `C=CC(=O)N1CCn2nc(-c3ccc(C(F)(F)F)cc3)c(-c3ccnc4[nH]ccc34)c2C1C` (single isomer, unassigned; isomer 1) [Example 258, 1-(4-methyl-3-(1H-pyrrolo[2,3-b]pyridin-4-yl)-2-(4-(trifluoromethyl)phenyl)-6,7-dihydropyrazolo[1,5-a]pyrazin-5(4H)-yl) prop-2-en-1-one (isomer 1)], the values for the half-inhibitory concentration (IC50) (in the assay with BA/F3 (insSVD) cells (48 h); in assay [1]; in assay [2]) were 82.6 nM, 100 nM and 1070 nM, respectively.
Consider `C=CC(=O)N1CCn2nc(-c3ccc(C(F)(F)F)cc3)c(-c3ccnc4[nH]cc(C)c34)c2C1C` (single isomer, unassigned; isomer 1) [Example 259, 1-(4-methyl-3-(3-methyl-1H-pyrrolo[2,3-b]pyridin-4-yl)-2-(4-(trifluoromethyl)phenyl)-6,7-dihydropyrazolo[1,5-a]pyrazin-5(4H)-yl) prop-2-en-1-one (isomer 1)], for which the IC50 in the assay on BA/F3 (insSVD) cells (Mus musculus, BaF3, 48 h) is 296 nM; in assay [1] it was 683 nM; in assay [2], 13300 nM.
Consider `C=CC(=O)N1CCn2nc(-c3ccc(F)cc3)c(-c3ccnc4[nH]cc(C)c34)c2C1C` (single isomer, unassigned; isomer 1) [Example 262, 1-(2-(4-fluorophenyl)-4-methyl-3-(3-methyl-1H-pyrrolo[2,3-b]pyridin-4-yl)-6,7-dihydropyrazolo[1,5-a]pyrazin-5(4H)-yl) prop-2-en-1-one (isomer 1)], for which the IC50 with BA/F3 (insSVD) cells (48 h) turned out to be 452 nM; in assay [1], 1620 nM; in assay [2], 396 nM.
For `CC1c2c(-c3ccnc4[nH]ccc34)c(-c3ccc(C(F)(F)F)cc3)nn2CCN1C(=O)/C=C/CN(C)C` (single isomer, unassigned; isomer 1) [Example 264, (E)-4-(dimethylamino)-1-(4-methyl-3-(1H-pyrrolo[2,3-b]pyridin-4-yl)-2-(4-(trifluoromethyl)phenyl)-6,7-dihydropyrazolo[1,5-a]pyrazin-5(4H)-yl) but-2-en-1-one (isomer 1)], in that order: 128 nM, 765 nM and 1130 nM.
In the case of `Cc1c[nH]c2nccc(-c3c(-c4ccc(C(F)(F)F)cc4)nn4c3C(C)N(C(=O)/C=C/CN(C)C)CC4)c12` (single isomer, unassigned; isomer 1) [Example 265, (E)-4-(dimethylamino)-1-(4-methyl-3-(3-methyl-1H-pyrrolo[2,3-b]pyridin-4-yl)-2-(4-(trifluoromethyl)phenyl)-6,7-dihydropyrazolo[1,5-a]pyrazin-5(4H)-yl) but-2-en-1-one (isomer 1)], the IC50 was found to be 172 nM in the assay with BA/F3 (insSVD) cells (48 h), 4040 nM in assay [1] and 6300 nM in assay [2].
For `Cc1c[nH]c2nccc(-c3c(-c4ccc(F)cc4)nn4c3C(C)N(C(=O)/C=C/CN(C)C)CC4)c12` (single isomer, unassigned; isomer 1) [Example 268, (E)-4-(dimethylamino)-1-(2-(4-fluorophenyl)-4-methyl-3-(3-methyl-1H-pyrrolo[2,3-b]pyridin-4-yl)-6,7-dihydropyrazolo[1,5-a]pyrazin-5(4H)-yl) but-2-en-1-one (isomer 1)], in that order: 279 nM, 940 nM and 446 nM.
For `C=CC(=O)N1Cc2c(-c3ccncc3)c(-c3ccc(OC)cc3)nn2C(C)C1` (single isomer, unassigned; isomer 1) [Example 274, 1-[2-(4-methoxyphenyl)-7-methyl-3-(pyridin-4-yl)-6,7-dihydropyrazolo[1,5-a]pyrazin-5(4H)-yl]prop-2-en-1-one (isomer 1)], in that order: 34.1 nM, 1.35 nM and 3.11 nM.
For `C=CC(=O)N1CCn2nc(-c3ccc(Cl)cc3F)c(-c3ccncc3)c2C1C` (single isomer, unassigned; isomer 1) [Example 278, 1-[2-(4-chloro-2-fluorophenyl)-4-methyl-3-(pyridin-4-yl)-6,7-dihydropyrazolo[1,5-a]pyrazin-5(4H)-yl]prop-2-en-1-one (isomer 1)] the same measures were 9.07 nM, 0.204 nM and 0.551 nM.
